According to patent US20250320202A1, “PRMT5 INHIBITOR, PREPARATION METHOD THEREFOR, AND PHARMACEUTICAL USE THEREOF” (Abbisko Therapeutics Co., Ltd., priority 2022, published 2025):

Key:
[1] = tested on: HCT116 MTAP wild-type cells; experiment: Human colon cancer HCT116 cell proliferation inhibition test (CellTiter-Glo, 6 days), MTAP wild-type cells; assay type: cell-based; conditions: HCT-116, 144 h
Description: (§1) 1. HCT116 MTAP knockout and MTAP wild-type cells were plated in 96-well flat bottom plates, and cultured overnight with McCoy's 5A medium containing 10% fetal bovine serum+1% penicillin-streptomycin at 37° C. and 5% CO2.
(§2) 2. On the next day, the compound was dissolved with DMSO, diluted with DMSO and medium successively and transferred to the cell plate. The final concentration of the compound was 10 μM, the compound was diluted 4 times, with 9 concentration gradients, and DMSO control was added.
(§3) 3. Cells that have not been treated with the compound were removed. CellTiter-Glo Luminescent Cell Viability Assay (Promega) was used to detect cell viability, the operation was performed with reference to the package insert of the kit, and then the cell plate was placed on EnVision Multilabel Reader to detect the cold light signal.
(§4) 4. Meanwhile, the cell plate treated with the compound was cultured at 37° C. and 5% CO2 for 6 consecutive days.
(§5) 5. Then, CellTiter-Glo was also used to detect cell viability.
(§6) 6. Finally, the four-parameter dose-response curve module of GraphPad Prism v 9.2.0 software was used to plot the dose-response curve and calculate the IC50 for proliferation inhibition (unit: nM).

[2] = tested on: HCT116 MTAP knockout cells; experiment: Human colon cancer HCT116 cell proliferation inhibition test (CellTiter-Glo, 6 days), MTAP knockout cells; assay type: cell-based; conditions: HCT-116, 144 h
Description: as §1, §2, §3, §4, §5, §6

Row | IC50 [1] [nM] | IC50 [2] [nM] | Compound
1 | 335 | 17 | Cn1cc(N(C(=O)c2cc3c4c(c(N)nc3cc2F)COC4)[C@@H]2CCc3cc(C(F)(F)F)ccc32)cn1 [Example 220, (R)-4-amino-7-fluoro-N-(1-methyl-1H-pyrazol-4-yl)-N-(5-(trifluoromethyl)-2,3-dihydro-1H-inden-1-yl)-1,3-dihydrofuro[3,4-c]quinolin-8-carboxamide]
2 | 708 | 8 | Cn1cc(N(C(=O)c2ccc3nc(N)c4ccncc4c3c2)C2COc3cc(C(F)(F)F)ccc32)cn1 (stereo not shown) [Example 133, 5-amino-N-(1-methyl-1H-pyrazol-4-yl)-N-(6-(trifluoromethyl)-2,3-dihydrobenzofuran-3-yl)benzo[c][2,6]naphthyridin-9-carboxamide]
3 |  | 640 | C[C@@H](c1ncccn1)N(C(=O)c1cc2c3c(c(N)nc2cc1F)COC3)[C@@H]1CCc2cc(C(F)(F)F)ccc21 [Example 224, 4-amino-7-fluoro-N-((S)-1-(pyrimidin-2-yl)ethyl)-N-((R)-5-(trifluoromethyl)-2,3-dihydro-1H-inden-1-yl)-1,3-dihydrofuro[3,4-c]quinolin-8-carboxamide]
4 | 1260 | 28 | Cn1ncc2c(N)nc3cc(F)c(C(=O)N(CC(F)(F)F)[C@@H]4COc5cc(C(F)(F)F)ccc54)cc3c21 [Example 185, (S)-4-amino-7-fluoro-1-methyl-N-(2,2,2-trifluoroethyl)-N-(6-(trifluoromethyl)-2,3-dihydrobenzofuran-3-yl)-1H-pyrazolo[4,3-c]quinolin-8-carboxamide]
5 | > 10000 | 2640 | Cn1cc(N(C(=O)c2ccc3nc(N)c4c(cnn4C)c3c2)[C@H]2COc3cc(C(F)(F)F)ccc32)cn1 [Example 188, (R)-4-amino-3-methyl-N-(1-methyl-1H-pyrazol-4-yl)-N-(6-(trifluoromethyl)-2,3-dihydrobenzofuran-3-yl)-3H-pyrazolo[3,4-c]quinolin-8-carboxamide]
6 |  | 1530 | Nc1nc2ccc(C(=O)N(CC3CC3)[C@H]3COc4nc(C(F)(F)F)ccc43)cc2c2cnccc12 [Example 196, (R)-5-amino-N-(cyclopropylmethyl)-N-(6-(trifluoromethyl)-2,3-dihydrofuro[2,3-b]pyridin-3-yl)benzo[c][2,6]naphthyridin-9-carboxamide]
7 | 276 | 0.3 | Cn1ccc(N(C(=O)c2cc3c(cc2F)nc(N)c2cnn(C)c23)C2CCc3cc(C(F)(F)F)ccc32)n1 (stereo not shown) [Example 168, 4-amino-7-fluoro-1-methyl-N-(1-methyl-1H-pyrazol-3-yl)-N-(5-(trifluoromethyl)-2,3-dihydro-1H-inden-1-yl)-1H-pyrazolo[4,3-c]quinolin-8-carboxamide]
8 |  | 139 | Cn1ncc2c(N)nc3cc(F)c(C(=O)N(CC(F)(F)F)C4COc5cc(C(F)(F)F)ccc54)cc3c21 (stereo not shown) [Example 157, 4-amino-7-fluoro-1-methyl-N-(2,2,2-trifluoroethyl)-N-(6-(trifluoromethyl)-2,3-dihydrobenzofuran-3-yl)-1H-pyrazolo[4,3-c]quinolin-8-carboxamide]
9 |  | 325 | Cn1ncc2c(N)nc3ccc(C(=O)N(c4ncccn4)C4CCc5cc(C(F)(F)F)ccc54)cc3c21 (stereo not shown) [Example 214, 4-amino-1-methyl-N-(pyrimidin-2-yl)-N-(5-(trifluoromethyl)-2,3-dihydro-1H-inden-1-yl)-1H-pyrazolo[4,3-c]quinolin-8-carboxamide]
10 |  | 115 | Nc1nc2ccc(C(=O)N(CC3CC3)C3COc4nc(C(F)(F)F)ccc43)cc2c2cnccc12 (stereo not shown) [Example 111, 5-amino-N-(cyclopropylmethyl)-N-(6-(trifluoromethyl)-2,3-dihydrofuro[2,3-b]pyridin-3-yl)benzo[c][2,6]naphthyridin-9-carboxamide]
11 |  | 116 | Nc1nc2ccc(C(=O)N(CC3CC3)C3CCc4nc(C(F)(F)F)ccc43)cc2c2cnccc12 (stereo not shown) [Example 110, 5-amino-N-(cyclopropylmethyl)-N-(2-(trifluoromethyl)-6,7-dihydro-5H-cyclopenta[b]pyridin-5-yl)benzo[c][2,6]naphthyridin-9-carboxamide]
12 |  | 6930 | COC[C@@H](C)N(C(=O)c1ccc2nc(N)c3ccncc3c2c1)[C@H]1CCc2cc(C(F)(F)F)ccc21 [Example 215, 5-amino-N-((R)-1-methoxypropan-2-yl)-N-((S)-5-(trifluoromethyl)-2,3-dihydro-1H-inden-1-yl)benzo[c][2,6]naphthyridin-9-carboxamide]
13 |  | 2360 | COC[C@@H](C)N(C(=O)c1cc2c3c(c(N)nc2cc1F)COC3)[C@H]1CCc2cc(C(F)(F)F)ccc21 [Example 217, 4-amino-7-fluoro-N-((R)-1-methoxypropan-2-yl)-N-((S)-5-(trifluoromethyl)-2,3-dihydro-1H-inden-1-yl)-1,3-dihydrofuro[3,4-c]quinolin-8-carboxamide]
14 |  | 52 | Cn1ncc2c(N)nc3cc(F)c(C(=O)N(Cc4cscn4)C4CCc5cc(C(F)(F)F)ccc54)cc3c21 (stereo not shown) [Example 95, 4-amino-7-fluoro-1-methyl-N-(thiazol-4-ylmethyl)-N-(5-(trifluoromethyl)-2,3-dihydro-1H-inden-1-yl)-1H-pyrazolo[4,3-c]quinolin-8-carboxamide]
15 |  | 940 | COC[C@@H](C)N(C(=O)c1ccc2nc(N)c3ccncc3c2c1)[C@@H]1CCc2cc(C(F)(F)F)ccc21 [Example 216, 5-amino-N-((R)-1-methoxypropan-2-yl)-N-((R)-5-(trifluoromethyl)-2,3-dihydro-1H-inden-1-yl)benzo[c][2,6]naphthyridin-9-carboxamide]
16 |  | 792 | Nc1nc2ccc(C(=O)N(CC3CC3)[C@H]3CCc4nc(C(F)(F)F)ccc43)cc2c2cnccc12 [Example 1, (S)-5-amino-N-(cyclopropylmethyl)-N-(2-(trifluoromethyl)-6,7-dihydro-5H-cyclopenta[b]pyridin-5-yl)benzo[c][2,6]naphthyridin-9-carboxamide]
17 |  | 2900 | Nc1nc2ccc(C(=O)N(c3ncns3)[C@@H]3CCc4cc(C(F)(F)F)ccc43)cc2c2cnccc12 [Example 191, (R)-5-amino-N-(1,2,4-thiadiazol-5-yl)-N-(5-(trifluoromethyl)-2,3-dihydro-1H-inden-1-yl)benzo[c][2,6]naphthyridin-9-carboxamide]
18 |  | 4 | Cn1ncc2c(N)nc3cc(F)c(C(=O)N(c4cscn4)C4CCc5cc(C(F)(F)F)ccc54)cc3c21 (stereo not shown) [Example 152, 4-amino-7-fluoro-1-methyl-N-(thiazol-4-yl)-N-(5-(trifluoromethyl)-2,3-dihydro-1H-inden-1-yl)-1H-pyrazolo[4,3-c]quinolin-8-carboxamide]
19 |  | 118 | C[C@H](c1ncccn1)N(C(=O)c1cc2c3c(c(N)nc2cc1F)COC3)[C@@H]1CCc2cc(C(F)(F)F)ccc21 [Example 223, 4-amino-7-fluoro-N-((R)-1-(pyrimidin-2-yl)ethyl)-N-((R)-5-(trifluoromethyl)-2,3-dihydro-1H-inden-1-yl)-1,3-dihydrofuro[3,4-c]quinolin-8-carboxamide]
20 |  | 217 | C[C@H](c1ncccn1)N(C(=O)c1ccc2nc(N)c3ccncc3c2c1)[C@@H]1CCc2cc(C(F)(F)F)ccc21 [Example 222, 5-amino-N-((R)-1-(pyrimidin-2-yl)ethyl)-N-((R)-5-(trifluoromethyl)-2,3-dihydro-1H-inden-1-yl)benzo[c][2,6]naphthyridin-9-carboxamide]
21 |  | 57 | Cn1ncc2c(N)nc3cc(F)c(C(=O)N(Cc4ncccn4)C4CCc5cc(C(F)(F)F)ccc54)cc3c21 (stereo not shown) [Example 7, 4-amino-7-fluoro-1-methyl-N-(pyrimidin-2-ylmethyl)-N-(5-(trifluoromethyl)-2,3-dihydro-1H-inden-1-yl)-1H-pyrazol[4,3-c]quinolin-8-carboxamide]
22 |  | 16 | Nc1nc2ccc(C(=O)N(c3cscn3)[C@@H]3CCc4cc(C(F)(F)F)ccc43)cc2c2cnccc12 [Example 212, (R)-5-amino-N-(thiazol-4-yl)-N-(5-(trifluoromethyl)-2,3-dihydro-1H-inden-1-yl)benzo[c][2,6]naphthyridin-9-carboxamide]
23 |  | 4 | Cn1cc(N(C(=O)c2cc3c(cc2F)nc(N)c2cnn(C)c23)C2CCc3cc(C(F)(F)F)ccc32)cn1 (stereo not shown) [Example 8, 4-amino-7-fluoro-1-methyl-N-(1-methyl-1H-pyrazol-4-yl)-N-(5-(trifluoromethyl)-2,3-dihydro-1H-inden-1-yl)-1H-pyrazolo[4,3-c]quinolin-8-carboxamide]
24 |  | 485 | COC[C@@H](C)N(C(=O)c1cc2c3c(c(N)nc2cc1F)COC3)[C@@H]1CCc2cc(C(F)(F)F)ccc21 [Example 218, 4-amino-7-fluoro-N-((R)-1-methoxypropan-2-yl)-N-((R)-5-(trifluoromethyl)-2,3-dihydro-1H-inden-1-yl)-1,3-dihydrofuro[3,4-c]quinolin-8-carboxamide]
25 |  | 4 | Cn1ncc2c(N)nc3cc(F)c(C(=O)N(c4cscn4)[C@@H]4CCc5cc(C(F)(F)F)ccc54)cc3c21 [Example 211, (R)-4-amino-7-fluoro-1-methyl-N-(thiazol-4-yl)-N-(5-(trifluoromethyl)-2,3-dihydro-1H-inden-1-yl)-1H-pyrazolo[4,3-c]quinolin-8-carboxamide]
26 |  | 134 | Nc1nc2ccc(C(=O)N(CC3CC3)[C@@H]3CCc4nc(C(F)(F)F)ccc43)cc2c2cnccc12 [Example 199, (R)-5-amino-N-(cyclopropylmethyl)-N-(2-(trifluoromethyl)-6,7-dihydro-5H-cyclopenta[b]pyridin-5-yl)benzo[c][2,6]naphthyridin-9-carboxamide]
